Data from patent US12168037B2, “Intracellular IL-1 alpha peptide methods and compositions” (CEDARS-SINAI MEDICAL CENTER, priority 2018, dated 2024).
Ends that are not written are not given here. Peptide text beside a SMILES is read from it. * marks the point of attachment. Cbz = O=C(OCc1ccccc1)*

Legend:
S87A-IL-1α protein = S87A-IL-1α protein stability in stably transfected 293 cells (western blot); assay type: cell-based, human; conditions: 293 cells stably expressing S87A-IL-1α, MG132 5 hours vs DMSO
Description: FIGS. 1A-1C depict in accordance with various embodiments of the invention, that serine phosphorylation is required for IL-1α protein stability. FIG. 1A) Relative expression of IL-1α mRNA by qPCR. FIG. 1B) Western Blot of IL-1α protein level in cell lysates. FIG. 1C) Western blot of IL-1α in cell lysates of cells treated with DMSO or MG132 for 5 hours.
Human IL-1α is phosphorylated at the serine 87 (S87) residue (mouse equivalent to S90) of the N-terminal pro-piece by protein kinase A (PKA). […] IL-1α phosphorylation is required for its membrane localization. A mutant IL-1α plasmid cDNA was made for studying the role of IL-1α subcellular localization: the Serine at 87 was exchanged with Alanine (S87A) using the QuikChange Site-Directed Mutagenesis kit, Cat #200518 and human pCMV-IL-1α-flag plasmid DNA (Sino Biological Inc. Cat #HG10128-M-F). Primers were designed by the QuikChange Primer Design software program.
Wild-type (WT)-IL-1α or mutant S87A-IL-1α plasmid was transfected into 293 cells and stable expressing cells lines were made. These cells express similar levels of IL-1α mRNA (FIG. 1A). IL-1α protein was detected only in WT-IL-1α transfected cells but not mutant S87A-IL-1α transfected cells (FIG. 1B). […] Based on this finding, a pseudosubstrate peptide was made to inhibit IL-1α phosphorylation, which may provide a more convenient way to control IL-1α during inflammation. […]

[1] = Membrane lipid strip binding (ECL detection); conditions: membrane lipid strips incubated with peptide (5 μg) or recombinant protein
Description: (§1) FIGS. 12A-12F depict in accordance with various embodiments of the invention, that the iIL-1α-peptide reduces cutaneous melanoma tumor. FIG. 12A-12B) Membrane lipid strips were incubated with (5 μg) SPDIA or Control peptide and detected by ECL. FIG. 12C) B16 or YUMM1.7 cells were treated with SPDIA or Control peptide (40 μg/ml) for 5 h, and pAkt1 and Akt1 in cell lysate were determined by WB. FIG. 12D) Experimental scheme. FIG. 12E) tumor pictures. FIG. 12F) Quantification of tumor volume, ** p<0.05. and Quantification of tumor mass, ** p<0.05. n=5.
FIGS. 14A-14C show intracellular IL-1α reduced Akt1 activation. FIG. 14A) pAkt1 and total Akt1 in cell lysate was determined by WB. FIG. 14B) Membrane lipid strip was incubated with recombinant human proIL-1α. IL-1α was detected by ECL system. FIG. 14C) PIP3 and Na, K-ATPase levels in plasma membrane fraction were determined by WB.
Intracellular IL-1α reduced Akt1 activation.
IL-1α pro-piece reduces melanoma tumor progression. To investigate the suppressive effect of intracellular proIL-1α in melanoma tumor progression, we designed a short Peptide Derived from IL-1A pro-piece (SPDIA) “GKVLKKRRLSL” (SEQ ID NO:1).

melanoma cells = assay: Cytotoxicity to melanoma cells; assay type: cell-based, mouse; conditions: 40 μg/ml, 5 h
Description: We label the SPDIA peptide with 680XL tag (680XL-SPDIA) using the VivoTag 680XL Protein Labeling Kit (PerkinElmer) for determine half-life and membrane penetrating efficiency of SPDIA peptide. B16 or YUMM1.7 melanoma cells are treated with 680XL-SPDIA peptide at various doses (10-100 μg/ml) and durations (1-10 h), and live images for intracellular expression and half-life of the SPDIA peptide are detected by fluorescence microscopy (Keyence, BZ-X). Further, the cellular cytotoxicity to the B16 and YUMM1.7 melanoma cells are measured by LDH cytotoxicity assay kit.
While we do […] expect to observe any cytotoxicity in vitro, at cells at lower concentrations of SPDIA peptide for longer durations (24, 48 h) and assess cell death.

IL-1α protein = IL-1α protein level in LPS-stimulated peritoneal macrophages (western blot); assay type: cell-based; conditions: peritoneal macrophages pretreated with peptide 1 hour, stimulated with LPS (3 hours), compared to LPS alone
Description: FIG. 2 depicts in accordance with various embodiments of the invention, that TAT-IL-1α peptide diminished IL-1α protein level. Peritoneal macrophages were pretreated with TAT-IL-1α or TAT-control peptides for 1 hour and stimulated with LPS (3 hours). The IL-1α protein level in cell lysate was detected by Western Blot. GAPDH was measured as a loading control.
The inventors investigated whether TAT-IL-1α peptide triggers IL-1α protein degradation by reducing its serine phosphorylation. Peritoneal macrophages were pretreated with TAT-IL-1α or TAT-Control peptides for 1 hour, stimulated with LPS, and the IL-1α protein level in whole cell lysate was detected by western blot (WB) (FIG. 2). The IL-1α protein level was decreased in TAT-IL-1α treated cells.

Akt1 = target: T1, Akt1 (Mus musculus, UniProt P31750); assay: Akt1 activation (pAkt1) in melanoma cells by western blot; assay type: cell-based; conditions: B16 or Yumm 1.7 murine melanoma cells, TAT-IL-1α 40 μg/ml, 5 hours, vs TAT-Control peptide
T1 construct: endogenous in cells
T1 sequence (P31750 whole entry): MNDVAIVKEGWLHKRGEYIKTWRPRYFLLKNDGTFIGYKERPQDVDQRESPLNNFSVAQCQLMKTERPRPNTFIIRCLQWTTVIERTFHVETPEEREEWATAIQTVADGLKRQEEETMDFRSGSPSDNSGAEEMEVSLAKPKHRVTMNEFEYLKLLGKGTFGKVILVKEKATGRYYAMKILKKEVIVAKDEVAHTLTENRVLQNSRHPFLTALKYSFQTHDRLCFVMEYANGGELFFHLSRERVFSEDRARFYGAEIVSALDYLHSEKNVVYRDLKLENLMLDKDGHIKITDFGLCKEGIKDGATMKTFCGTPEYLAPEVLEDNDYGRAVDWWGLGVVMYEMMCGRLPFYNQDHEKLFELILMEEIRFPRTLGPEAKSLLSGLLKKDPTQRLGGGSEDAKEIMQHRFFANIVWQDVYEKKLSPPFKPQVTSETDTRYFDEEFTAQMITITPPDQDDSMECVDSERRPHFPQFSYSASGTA
Description: FIG. 3 depicts in accordance with various embodiments of the invention, that TAT-IL-1α peptide diminished Akt1 activation and increased HK-2 mitochondrial dissociation. B16 or Yumm 1.7 murine melanoma cells were treated with TAT-IL-1α (40 μg/ml) or TAT-Control peptide for 5 hours. HK-2 level and pAkt1 activation in the cytosolic and mitochondrial fraction were detected by Western Blot. GAPDH was measured as a loading control.
FIGS. 10A-10C depict in accordance with various embodiments of the invention, the iIL-1α-peptide reduces Akt1 activation and glycolysis in melanoma cells. […] FIG. 10B) HK-2 and pAkt1 in cytosolic and mitochondrial fraction were determined by WB. […] FIG. 10C) Extracellular acidification rate (ECAR) was measured by Seahorse and compared over time in PBS and iIL-1α-peptide treated mice.
as §1, with “FIG. 12D) Experimental scheme. FIG. 12E) tumor pictures.” left out, “n=5. […]” for “n=5.”

hexokinase 2 (HK-2) = assay: HK-2 mitochondrial/cytosolic fraction level in melanoma cells by western blot; assay type: cell-based, mouse; conditions: B16 or Yumm 1.7 cells, 40 μg/ml, 5 hours, vs TAT-Control
Description: B16 cells isolated from tumors from WT mice were treated with iIL-1α-mimic peptide (iIL-1α-peptide) (40 μg/ml) or PBS for 5 hours. […] FIG. 10B) HK-2 and pAkt1 in cytosolic and mitochondrial fraction were determined by WB. COX-IV and GAPDH was used as a loading controls.
B16 cells were isolated from WT mice and cultured in-vitro. The cells were treated with the iIL-1α-mimic peptide (iIL-1α peptide) or PBS for 5 hours (FIG. 10).
B16 or Yumm1.7 melanoma cells were treated with PBS or iIL-1α-peptide (40 μg/ml) for 5 hours, and HK-2 levels and Akt1 activation in the mitochondrial and cytosolic fraction were determined by western blot.

B16 melanoma cells = assay: B16 melanoma lung metastasis/colonization model (tail vein injection); assay type: in vivo, mouse; conditions: vs TAT-Control peptide; for melanoma (lung) metastasis: B16 cells i.v. in female WT mice, peptide i.v. five days later, lungs harvested five days post treatment
Source text: FIGS. 4A-4C depict in accordance with various embodiments of the invention, that TAT-IL-1α peptide reduced lung metastasis. FIG. 4A) Experimental Schematic (top), metastatic lungs (bottom images). FIG. 4B) Quantification of tumor number in TAT-Control and TAT-IL-1α. FIG. 4C) Melanin content of the metastatic lungs in TAT-Control and TAT-IL-1α.
FIGS. 11A-11C depict in accordance with various embodiments of the invention, that the iIL-1α-peptide reduces melanoma colonization in the lung. FIG. 11A) Experimental scheme and representative lung pictures. FIG. 11B) Quantification of tumor number, **p<0.01. FIG. 11C) Quantification of melanin content, *p<0.05. n=4.
The B16 (also referred herein as “B16F10”) mouse melanoma metastasis model is widely accepted, as B16 cells injected via tail vein reliably colonize the lungs, with easily identifiable tumors after 7-14 days. While the use of a genetic melanoma model may be ideal, it requires the use of immunodeficient mice or the complicated and expensive humanized mice. While the B16 model may have its known caveats, it has repeatedly given very useful novel mechanistic clues that can be further tested in more relevant models, such as genetically engineered mice. In addition to the B16 model, a mouse melanoma cell line with human genetic drivers that are more relevant to human melanoma formation and progression were also used. To this effect, a non-immunogenic cell line (YUMM1.7) was used. In the YUMM1.7 cells, nearly 50% of human melanomas harbor a gain of function in the Braf^V600E Cdkn2a−/− Pten−/− mutations and they form reliable lung tumors following tail vein injection (5×10^5, in 3 weeks). Other common mutations in human melanoma include CDKN2A (familial melanoma gene), inactivation of tumor suppressors including INK4A, ARF, p53, and PTEN, as well as mutations in proto-oncogenes such as H-RAS, N-RAS, and K-RAS.
The peptides were subsequently tested in vivo. B16 melanoma cells were intravenously (i.v.) injected in the tail vein of female WT mice. Five days later, TAT-IL-1α or TAT-Control peptide was injected in the tail vein (i.v.). Five days post treatment, lungs were harvested and examined for metastasis. […] The tumor number and melanin content were diminished in the TAT-IL-1α treatment group compared to TAT-Control peptide treatment. (FIGS. 4B and 4C).
The mouse models used were C57Bl/6 WT or Il1α−/− mice injected with B16 cells (2×10^5 tail vein), (3×10^5 subcutaneous) or C57Bl/6 WT mice injected with YUMM1.7 cells (5×10^5 subcutaneous). The IL-1α, pAkt1 and HK-2 levels were determined by WB. The glycolytic rate in B16 cells was measured by Seahorse.
The iIL-1α-peptide reduces tumor burden in vivo. The protective role of the iIL-1α-peptide against melanoma colonization was investigated. […] The mice were analyzed 5 days later.

[2] = B16 i.v. model, peptide i.v. day 5

CC(C)C[C@@H](C=O)NC(=O)[C@H](CC(C)C)NC(=O)[C@H](CC(C)C)NC(=O)OCc1ccccc1 [MG132] (Cbz-Leu-Leu-Leu-aldehyde)
S87A-IL-1α protein in cell lysate (S87A-IL-1α protein): clearly detected

GKVLKKAALSL [control peptide, SPDIA with arginine residues replaced by alanine, reference compound]
interaction with phosphoinositides on membrane lipid strip [1]: fails to bind with PIP and PIP2

GKVLKKRRLSL [SPDIA, GKVLKKRRLSL]
cytotoxicity (melanoma cells): without inducing cytotoxicity

YGRKKRRQRRRLAKARLAL [TAT-Control peptide, control peptide for TAT-IL-1α peptide, reference compound]
IL-1α protein level in whole cell lysate (IL-1α protein): slightly decreased

YGRKKRRQRRRLKKRRLSL [TAT-IL-1α peptide]
IL-1α protein level in whole cell lysate (IL-1α protein): diminished | IL-1α protein level in whole cell lysate (IL-1α protein; listed as TAT-IL-1α): decreased | Akt1 activation (pAkt1) (Akt1): diminished | Akt1 activation (pAkt1) (Akt1; listed as TAT-IL-1α): significantly inhibited | HK-2 mitochondrial dissociation (hexokinase 2 (HK-2)): increased | HK-2 mitochondrial translocation (hexokinase 2 (HK-2)): diminished | melanoma (lung) metastasis (B16 melanoma cells): reduced | melanoma (lung) metastasis (B16 melanoma cells; listed as TAT-IL-1α): significantly reduced | melanin content of the metastatic lungs (B16 melanoma cells; [2]): diminished | tumor number (metastatic lungs) (B16 melanoma cells; [2]): diminished

B1: proIL-1α: recombinant human proIL-1α incubated with membrane lipid strip (protein, UniProt P01583 1-271, looked up)
pro-form: MAKVPDMFEDLKNCYSENEEDSSSIDHLSLNQKSFYHVSYGPLHEGCMDQSVSLSISETSKTSKLTFKESMVVVATNGKVLKKRRLSLSQSITDDDLEAIANDSEEEIIKPRSAPFSFLSNVKYNFMRIIKYEFILNDALNQSIIRANDQYLTAAALHNLDEAVKFDMGAYKSSKDDAKITVILRISKTQLYVTAQDEDQPVLLKEMPEIPKTITGSETNLLFFWETHGTKNYFTSVAHPNLFIATKQDYWVCLAGGPPSITDFQILENQA
modifications: pro-form
notes: recombinant human proIL-1α incubated with membrane lipid strip
interaction with phosphoinositides on membrane lipid strip [1]: interaction with phosphoinositides such as PI(4)P (PIP), PI(4,5)P2 (PIP2) and PI(3,4,5)P3 (PIP3)
